Among the data in patent US12662491B2 (Redona Therapeutics, Inc., priority 2020, dated 2026) are IC50 values, retold here.

Usually IC50 stands for the concentration at which inhibition is half-maximal.

In one assay the target is T1, Zcchc11 enzyme (Homo sapiens, UniProt Q5TAX3).
T1 construct: made in house; host or cells: HEK293 cells (Zcchc11); E. coli Rosetta II (LIN28A)
T1 sequence (Q5TAX3 212-1420): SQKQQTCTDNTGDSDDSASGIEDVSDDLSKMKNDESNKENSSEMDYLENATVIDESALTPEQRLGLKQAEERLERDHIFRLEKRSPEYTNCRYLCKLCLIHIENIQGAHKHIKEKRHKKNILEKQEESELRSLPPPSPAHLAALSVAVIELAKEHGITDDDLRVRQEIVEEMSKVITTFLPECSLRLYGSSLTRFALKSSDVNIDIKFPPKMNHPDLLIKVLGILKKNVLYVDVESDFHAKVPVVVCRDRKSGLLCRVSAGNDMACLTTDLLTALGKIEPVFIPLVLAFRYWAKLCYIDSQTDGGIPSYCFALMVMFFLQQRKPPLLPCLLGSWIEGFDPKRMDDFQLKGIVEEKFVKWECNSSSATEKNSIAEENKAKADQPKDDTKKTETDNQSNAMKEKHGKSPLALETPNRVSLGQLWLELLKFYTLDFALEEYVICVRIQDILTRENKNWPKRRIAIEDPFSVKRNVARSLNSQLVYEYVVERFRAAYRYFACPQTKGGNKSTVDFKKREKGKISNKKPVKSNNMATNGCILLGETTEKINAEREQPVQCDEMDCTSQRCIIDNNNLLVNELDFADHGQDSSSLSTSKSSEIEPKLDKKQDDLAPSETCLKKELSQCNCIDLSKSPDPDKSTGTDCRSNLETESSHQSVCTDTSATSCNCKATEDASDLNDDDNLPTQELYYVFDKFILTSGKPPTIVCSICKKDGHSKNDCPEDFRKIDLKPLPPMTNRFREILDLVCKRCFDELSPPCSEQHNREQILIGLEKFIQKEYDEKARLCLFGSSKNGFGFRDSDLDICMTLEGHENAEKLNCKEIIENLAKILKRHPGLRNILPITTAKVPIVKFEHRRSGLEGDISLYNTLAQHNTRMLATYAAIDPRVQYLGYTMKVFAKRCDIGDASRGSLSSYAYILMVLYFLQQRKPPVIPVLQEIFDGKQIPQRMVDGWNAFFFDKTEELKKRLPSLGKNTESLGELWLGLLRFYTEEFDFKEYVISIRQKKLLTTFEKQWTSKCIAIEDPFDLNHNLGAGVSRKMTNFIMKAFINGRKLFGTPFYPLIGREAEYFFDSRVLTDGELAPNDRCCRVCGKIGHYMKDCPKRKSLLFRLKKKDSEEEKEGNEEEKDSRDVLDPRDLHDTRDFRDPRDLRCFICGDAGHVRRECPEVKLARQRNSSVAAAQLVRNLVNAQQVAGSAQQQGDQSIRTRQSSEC
Put plainly: TUTase assay (Zcchc11 assay, Lin28a-dependent polyuridylation of pre-let-7). The assay is classed as biochemical. Conditions: Lin28a-dependent Zcchc11 (Z11) TUTase activity; read-out: Potency Lin28a-dep Z11 IC50. The essentials:
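Human Zcchc11 residues 212-1420 (HEK293-expressed, MBP tag cleaved, C-terminal FLAG) at 0.2 nM, with 10 nM full-length human LIN28A and 2 nM 5′-fluorescein pre-let-7, preincubated with compound 30 min at room temperature. Reaction started with 5 uM UTP plus 4 nM 3′-rhodamine A20 quench probe; fluorescein loss read kinetically, IC50 from initial rates.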
Consider `CC(C)[C@@H]1COC(=O)N1C[C@H]1CCCN1c1cc2c(cc1Cl)c(=O)c(C(=O)O)cn2C1(C)CC1` [Compound 141, 6-chloro-7-((R)-2-(((R)-4-isopropyl-2-oxooxazolidin-3-yl)methyl)pyrrolidin-1-yl)-1-(1-methylcyclo-propyl)-4-oxo-1,4-dihydro-quinoline-3-carboxylic acid], for which the half-maximal inhibitory concentration (IC50) was greater than 50 µM.
On the same count and under the same terms, with `COc1ccc(Cl)c(OC[C@H]2CC(c3ccc(O)nc3)CN2c2cc3c(cc2F)c(=O)c(C(=O)O)cn3-c2ccc(N3CC(N(C)C)C3)nc2)n1` (mixture of isomers) [Compound 224, Formic acid compound with rac-7-((2R)-2-(((3-chloro-6-methoxy-pyridin-2-yl)oxy)methyl)-4-(6-hydroxy-pyridin-3-yl)pyrrolidin-1-yl)-1-(6-(3-(dimethyl-amino)azetidin-1-yl)pyridin-3-yl)-6-fluoro-4-oxo-1,4-dihydro-quinoline-3-carboxylic acid (1:1)] the figure was no more than 1 µM; with `Cc1cccnc1OC[C@H]1CCCN1c1cc2c(cc1F)c(=O)c(C(=O)O)cn2-c1ccc(O)c(F)c1` [Compound 120, (R)-6-fluoro-1-(3-fluoro-4-hydroxy-phenyl)-7-(2-(((3-methylpyridin-2-yl)oxy)methyl)pyrrolidin-1-yl)-4-oxo-1,4-dihydro-quinoline-3-carboxylic acid], no more than 1 µM; with `CN(C)C1CN(c2ccc(-n3cc(C(=O)O)c(=O)c4cc(Cl)c(N5CC(C6CCC6)C[C@@H]5COc5ncccc5Cl)cc43)cn2)C1` (mixture of isomers) [Compound 205, rac-6-chloro-7-((2R)-2-((3-chloropyridin-2-yl)oxy)methyl)-4-cyclobutyl-pyrrolidin-1-yl)-1-(6-(3-(dimethyl-amino)azetidin-1-yl)pyridin-3-yl)-4-oxo-1,4-dihydro-quinoline-3-carboxylic acido-quinoline-3-carboxylic acid], no more than 1 µM.
`COc1ccc(Cl)c(-n2cc(C(=O)O)c(=O)c3cc(F)c(N4CCC[C@@H]4COc4ccccn4)cc32)c1` [Compound 157, (R)-1-(2-chloro-5-methoxy-phenyl)-6-fluoro-4-oxo-7-(2-((pyridin-2-yloxy)methyl)pyrrolidin-1-yl)-1,4-dihydro-quinoline-3-carboxylic acid]: the concentration for half-maximal inhibition (IC50) is 1 to 10 µM.
Consider `COCCN(C)C1CN(c2ccc(-n3cc(C(=O)O)c(=O)c4cc(F)c(N5CC(c6cccnc6)C[C@@H]5COc5ncccc5Cl)cc43)cn2)C1` (stereo partly drawn) [Compound 326, 7-[(2R)-2-[[(3-Chloropyridin-2-yl)oxy]methyl]-4-(pyridin-3-yl)pyrrolidin-1-yl]-6-fluoro-1-(6-[3-[(2-methoxyethyl) (methyl)amino]azetidin-1-yl]pyridin-3-yl)-4-oxoquinoline-3-carboxylic acid], for which the IC50 is no more than 1 µM.
Turning to `CN(C)C1CN(c2ccc(-n3cc(C(=O)O)c(=O)c4cc(Cl)c(N5CCC5COc5ncccc5Cl)cc43)cn2)C1` (centres unmarked) [Compound 184, 6-chloro-7-(2-(((3-chloropyridin-2-yl)oxy)methyl)azetidin-1-yl)-1-(6-(3-(dimethyl-amino)azetidin-1-yl)pyridin-3-yl)-4-oxo-1,4-dihydro-quinoline-3-carboxylic acid formic acid], the half-inhibitory concentration (IC50) was no more than 1 µM.
In the case of `CN(C)C1CN(c2ccc(-n3cc(C(=O)O)c(=O)c4cc(Cl)c(N5CC(C6CC6)C[C@@H]5COc5ncccc5Cl)cc43)cn2)C1` (stereo partly drawn) [Compound 349, 6-chloro-7-((2R)-2-(((3-chloropyridin-2-yl)oxy)methyl)-4-cyclopropyl-pyrrolidin-1-yl)-1-(6-(3-(dimethyl-amino)azetidin-1-yl)pyridin-3-yl)-4-oxo-1,4-dihydro-quinoline-3-carboxylic acid], the 50% inhibitory concentration (IC50) was no more than 1 µM.
Consider `O=C(O)c1cn(-c2ccc(N3CCC3)nc2)c2cc(N3C(=O)CC[C@@H]3COc3ccccn3)c(Cl)cc2c1=O` [Compound 287, (R)-1-(6-(azetidin-1-yl)pyridin-3-yl)-6-chloro-4-oxo-7-(2-oxo-5-((pyridin-2-yloxy)methyl)pyrrolidin-1-yl)-1,4-dihydro-quinoline-3-carboxylic acid], for which the IC50 was 10 to 50 µM.

The assay is the same for the next values; noted with them: Lin28a-dependent Zcchc11 (Z11) TUTase assay; read-out: Potency Lin28a-dep Z11 IC50.
For `Nc1cc(-n2cc(C(=O)O)c(=O)c3cc(Cl)c(N4CCC[C@@H]4COc4ncccc4Cl)cc32)cnn1` [Example 617, (R)-1-(6-aminopyridazin-4-yl)-6-chloro-7-(2-(((3-chloropyridin-2-yl)oxy)methyl)pyrrolidin-1-yl)-4-oxo-1,4-dihydroquinoline-3-carboxylic acid], the half-maximal inhibitory concentration (IC50) is no more than 1 µM.
Turning to `CN1CC2CN(c3ccc(-n4cc(C(=O)O)c(=O)c5cc(Cl)c(N6CCC[C@@H]6COc6ncccc6Cl)cc54)cn3)CC2C1` (stereo partly drawn) [Example 523, 6-chloro-7-((R)-2-(((3-chloropyridin-2-yl)oxy)methyl)pyrrolidin-1-yl)-1-(6-(5-methylhexahydro-pyrrolo[3,4-c]pyrrol-2(1H)-yl)pyridin-3-yl)-4-oxo-1,4-dihydroquinoline-3-carboxylic acid], the IC50 was no more than 1 µM.
`CC(C)(C)OC(=O)N1CC(c2ccc(-n3cc(C(=O)O)c(=O)c4cc(Cl)c(N5CCC[C@@H]5COc5ncccc5Cl)cc43)cn2)C1` [Example 615, (R)-1-(6-(1-(tert-butoxycarbonyl)azetidin-3-yl)pyridin-3-yl)-6-chloro-7-(2-(((3-chloropyridin-2-yl)oxy)methyl)pyrrolidin-1-yl)-4-oxo-1,4-dihydroquinoline-3-carboxylic acid]: the 50% inhibitory concentration (IC50) was no more than 1 µM.
Regarding `O=C(O)c1cn(-c2ccnc(O)c2)c2cc(N3CCC[C@@H]3COc3ncccc3Cl)c(Cl)cc2c1=O` [Example 428, (R)-6-chloro-7-(2-(((3-chloropyridin-2-yl)oxy)methyl)pyrrolidin-1-yl)-1-(2-hydroxypyridin-4-yl)-4-oxo-1,4-dihydroquinoline-3-carboxylic acid], the 50% inhibitory concentration (IC50) was no more than 1 µM.
On the same count and under the same terms, with `Cn1ccnc1-n1cc(C(=O)O)c(=O)c2cc(Cl)c(N3CCC[C@@H]3COc3ncccc3Cl)cc21` [Example 568, (R)-6-chloro-7-(2-(((3-chloropyridin-2-yl)oxy)methyl)pyrrolidin-1-yl)-1-(1-methyl-1H-imidazol-2-yl)-4-oxo-1,4-dihydroquinoline-3-carboxylic acid] the figure was no more than 1 µM; with `CN1CCn2nc(-n3cc(C(=O)O)c(=O)c4cc(Cl)c(N5CCC[C@@H]5COc5ncccc5Cl)cc43)cc2C1` [Example 508, (R)-6-chloro-7-(2-(((3-chloropyridin-2-yl)oxy)methyl)pyrrolidin-1-yl)-1-(5-methyl-4,5,6,7-tetrahydropyrazolo [1,5-a]pyrazin-2-yl)-4-oxo-1,4-dihydroquinoline-3-carboxylic acid], no more than 1 µM; with `CN(C)C1CN(c2ccc(-n3cc(C(=O)O)c(=O)c4cc(Cl)c(N5CCC[C@@H]5COc5nc6nc[nH]c6cc5Cl)cc43)cn2)C1` [Example 652, (R)-6-chloro-7-(2-(((6-chloro-3H-imidazo[4,5-b]pyridin-5-yl)oxy)methyl)pyrrolidin-1-yl)-1-(6-(3-(dimethylamino)azetidin-1-yl)pyridin-3-yl)-4-oxo-1,4-dihydroquinoline-3-carboxylic acid], no more than 1 µM.
Still for that read-out and setting: with `Nc1ccc(-n2cc(C(=O)O)c(=O)c3cc(Br)c(N4CCC[C@@H]4COc4ncccc4Cl)cc32)cn1` [Example 509, 1-(6-aminopyridin-3-yl)-6-bromo-7-[(2R)-2-{[(3-chloropyridin-2-yl)oxy]methyl}pyrrolidin-1-yl]-4-oxo-1,4-dihydroquinoline-3-carboxylic acid] the figure was no more than 1 µM.
